Values of other authors in patent US20250255845A1, “USE OF INTERLEUKIN (IL)-17A INHIBITOR IN PREPARATION OF MEDICAMENT FOR TREATING INFLAMMATORY DISEASE” (Xiangnan University, priority 2024, published 2025).

Tested on: endothelial cells
Details: CN101947215A; cited from earlier work

**Q.** For `COc1ccc(-c2cc(=O)c3c(OC)c(OC)c(OC)c(OC)c3o2)cc1OC` [nobiletin], which “proliferation of endothelial cells / angiogenesis” value is on record?
**A.** The value was “inhibit the proliferation of endothelial cells”.

**Q.** Which “proliferation of endothelial cells / angiogenesis” value does the source give for `COc1ccc(-c2cc(=O)c3c(OC)c(OC)c(OC)cc3o2)cc1OC` [sinensetin] here?
**A.** Its value is “inhibit the proliferation of endothelial cells”.
